The nature of series [1]: In vitro plasma half-life. The series is classed as in vitro ADME. Particulars: mouse, plasma, murine plasma, read-out: Plasma T1/2 (converted). As to the method:
12M11 (2 μM final concentration) was incubated with murine plasma and saline for 0-1440 minutes. Reactions were quenched with 200 μl (1:2) of methanol containing 0.1% formic acid and 200 ng/ml IS (IS final conc.=100 ng/mL). Samples were vortexed for 15 seconds, incubated at RT for 10 minutes and spun for 5 minutes at 13.2K rpm. Supernatant ([…]) was then transferred to an eppendorf tube and spun in a table top, chilled centrifuge for 5 minutes at 13.2K rpm. Supernatant (800 μL) was transferred to an HPLC vial (w/out insert). Analyzed by Qtrap 3200 mass spectrometer. These methods were used data obtained in the FIGS. 22C and 22F.

Series [2] deals with MEF. Put plainly: OCR and ECAR measurement (Seahorse) in MEF. The format is cell-based, mouse. As to the method: Oxygen consumption rate (OCR) and extracellular acidification rate (ECAR) were measured by Seahorse Bioscience instrument (XF24) with 80-90% confluent cells, according to the manufacturer's protocol. Briefly, cells were equilibrated for 1 hr at 37° C. incubator lacking CO2. Oxygen concentration and pH in media were measured during sequential treatment with 12M11, Oligomycin (1 μM), FCCP (1 μM), and Rotenone (200 nM). A minimum of three wells were utilized per condition to calculate OCR and ECAR.

Series [3] has as its system DAOY (medulloblastoma) cells. Put plainly: CellTiter-Glo cell viability in DAOY cells. The format is cell-based. Here is the method: The activity of compound 12M11 was tested against a variety of cancer cell lines (see FIG. 2A), including those are routinely used in the literature such as HeLa, DAOY, MCF7, 435 and HCC38 cells. […] Just as for MEF cells, without wishing to be bound by any theory, it is believed that the resistance of DAOY cells to the OxyPhos inhibitor 12M11 can be attributed to their higher ATP levels per cell (FIG. 13B) combined with lower intrinsic OxyPhos activity as assessed by TMRE staining (FIG. 13C).
On the technique in general: Cellular ATP, detected with luciferase, serves as a proxy for viable cell number.

Series [4] has as its system Phospho-S6. Put plainly: p-S6 western blot in Mut6 cells. The format is cell-based, mouse. As to the method:
Mut6 tumor cells and MEFs were treated by DMSO or 1 μM 12M11 for the indicated times. Cell lysate was prepared by RIPA buffer with phosphatase inhibitor (Thermo) and protease inhibitor (Roche). Antibodies are purchased from Santa Cruz (ATF4), Cell Signaling (pS6, S6, AMPK, and pAMPK), and Millipore (Gapdh).

For series [5], the system named is Mut6. Kind of series: Cytotox testing (CellTiter-Glo ATP assay) in Mut6 cells. The series is classed as cell-based, mouse. An outline of the steps: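 Mouse glioblastoma Mut6 neural stem-like cells were grown in EGF/bFGF/N2/B27 medium and plated at 2,000 cells/well on poly-lysine/laminin. About 3 h later they were treated with compound (5 μM final in the stated case) for 4 days. Viability was read as CellTiter-Glo luminescence in quadruplicate, with EC50s fitted.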

A short description of series [6]: Hepatocyte half-life. To be noted: hepatocytes; in vitro; read-out: hepatocyte T1/2. The format is in vitro ADME.
Series [7] deals with oxidative phosphorylation complexes I-V. Kind of series: Avidin agarose pull-down of Biotin-12M11 interacting proteins from Mut6 cells. The format is binding, mouse. To be noted: Mut6 cell lysates. As to the method:
To understand the unique selectivity of 12M11 to affect the viability of Mut6 cells, the precise molecular target(s) of 12M11 were determined. A 12M11 biotinylated variant (see Cpd 1.11, FIG. 16C) was generated to attempt to directly pull down interacting proteins. […] Mut6 cells were treated with 12M11, Biot-12M11, or pre-incubated with 12M11 followed by addition of Biot-12M11 (see FIG. 17 for a general schematic protocol). As indicated in the silver stain of a denaturing gel (FIG. 18A) with the pull down reactions, several bands that appear in the Biot-12M11 tract (Lane 2) are substantially diluted or absent in Lane 3 where the cells were pre-incubated with excess 12M11. […] The results from Mass-Spec analysis were as follows: 1) Lysate from Mut6 cells incubated with 12M11 alone yielded no proteins; 2) Lysate from Mut6 cells incubated with Biot-12M11 yielded 8 proteins (Atp5a1, Acaca, Hspa9, Hsp60, Decr1, Sdha, Pcca, and Atp5o; FIG. 19B). Two of the proteins, Acac and Pcca, were discounted as known to nonspecifically bind Biotin (Tong, 2005; Diacovich, et al., 2004; Kalousek, et al., 1980). The remaining 6 proteins all localize to the mitochondrion and 3 of the pulled down proteins are components of the oxidative phosphorylation complexes. […]

Each structure is given as a SMILES string. Entries after “also recorded” stand apart in the source; their conditions may differ.

One molecule from US20180354909A1, “SUBSTITUTED BENZIMIDAZOLIUM, PYRIDO-IMIDAZOLIUM, OR PYRAZINO-IMIDAZOLIUM COMPOUNDS AS CHEMOTHERAPEUTICS” (The Board of Regents of the University of Texas System, priority 2015, published 2018) can be followed below.

In the case of `CCc1n(CC(=O)O[C@@H]2C[C@H](C)CC[C@H]2C(C)C)c2ccccc2[n+]1C.[Cl-]` [Compound 12M11], the half-life at 2 μM in series [1] was 4 min. Besides, in series [2], the extracellular acidification entry is listed as “do not increase acidification significantly” and the “oxygen consumption rate (OCR)” value was “decrease”. For the same molecule, the “sensitivity of DAOY cells” value in series [3] is recorded as “resistance”. Also, the Phospho-S6 protein level result in series [4] was “down regulation”. Besides, in series [5] (CellTiter-Glo), the “activity against Mut6 cells” value was “specific nanomolar activity; also recorded: specific toxicity”. In addition, the EC50 in series [5] (Mus musculus, Mut6 cells, FIG. 1, read-out: potency) was approximately 100 nM. In series [5] (after six hours of exposure), the “cell death on Mut6 cells” value is reported as “irrevocable cell death”. Moreover, the half-life in series [6] is 4.28 h. Moreover, in series [7], the “association with OxyPhos complex proteins (pull-down)” value is given as “excludes”.
